# Test results reported in publication PMC12266748, “A Xanthine Derivative With Novel Heat Shock Protein 90‐Alpha Inhibitory and Senolytic Properties” (Aging Cell, 2025).
# Experiments:
# MCF7 cells [1] = assay: Annexin V staining of senescent MCF7 (Incucyte); type: cell-based, Homo sapiens; conditions: Tamoxifen-induced senescent MCF7, K5 10 μM, after 24 h, over 96 h
# Method: Senescent MCF7 cells were treated with K5 and Incucyte Annexin V NIR Dye (Sartorius). Cells were monitored using the Incucyte live‐cell Analysis system (Sartorius). Images were acquired using the phase microscopy EVOS XL Core at 10× magnification and analyzed using the ImageJ software.
# Annexin V staining. MCF7 were plated 24 h before the treatment with 4-Hydroxytamoxifen (TAM) 10 μM for 96 h to induce the senescence described by (Lee et al. 2014). Control cultures were treated with equal volumes of 75% ethanol as the vehicle. Then, cells were washed and treated with the senolytic drug K5 10 µM and DMSO as solvent control for another 96 h and with the Incucyte Annexin V NIR Dye (1:200, Sartorius). Cells were monitored using the Incucyte live-cell Analysis system (Sartorius). The images were acquired using the phase microscopy EVOS XL Core at 10X magnification and analyzed using the ImageJ software. The mean signal intensity was then normalized for the total number of cells.
# MCF7 cells [2] = assay: Western blot of MCF7 protein expression after Tamoxifen treatment; type: cell-based, Homo sapiens; conditions: MCF7, TAM 10 μM + K5 10 μM, compared to DMSO
# Method: WB was performed according to standard procedures and detected by UVITEC (Eppendorf). Densitometric analysis was performed with NIH ImageJ 1.8 software.
# Western Blot. WB was performed according to standard procedures. Total protein extract was performed as in (Aiello et al. 2016). Western blot assay used 10 µg of protein extract and proteins solved by SDS-PAGE. […] Densitometric analysis was performed with NIH Image J 1.8 software (National Institutes of Health, Bethesda, MD, USA), and specific values were normalized to loading control (β-Actin).
# IMR90 cells = assay: Immunofluorescence of Cytochrome C / mitochondria colocalization in senescent IMR90; type: cell-based, Homo sapiens; conditions: senescent IMR90 (PD21), 48 h, K5 25 μM, Dasatinib 1 μM; Vehicle OR = 0.913
# Method: (§1) Treated/untreated senescent IMR90 and MCF7 cells were fixed, permeabilized, and stained following suppliers' recommendations. Images were acquired using an Olympus IX83 research inverted microscope (IF) and a phase microscopy Nikon ECLIPSE Ei R (IHC) at 40× MAG.
# (§2) Immunofluorescence staining. Treated/untreated IMR90 and MCF7 cells were cultured in LabTek II chamber slides (Nunc, Biosigma). At the final time point, cells were stained with 500 nM MitoTracker Orange (Thermo Fisher Scientific) for 30 min at 37°C and then fixed in 4% PFA (Merck) for 10 min, RT, and permeabilized with 0.1% Triton solution (Merck) for 30 min at RT. Samples were blocked in 5% BSA for 90 min, incubated overnight at 4°C with primary antibody against Cytochrome C (1:50, RbMAb, Abcam), and 1h at RT with secondary antibody Alexa Fluor 488 goat anti-Rb (1:200, Thermo Fisher Scientific). Nuclei were stained with DAPI (Cell Signaling) for 10 min at RT, and ProLong Glass Antifade Mountant (Thermo Fisher Scientific) was used to seal coverslips. Images were acquired using an Olympus IX83 research inverted microscope at 40X magnifications.
# MCF7 cells [3] = assay: Immunofluorescence of Cytochrome C / mitochondria colocalization in senescent MCF7; type: cell-based, Homo sapiens; conditions: MCF7, TAM 10 µM 96 h, then 72 h K5 10 µM or Dasatinib 1 µM
# Method: as §1, §2
# Drosophila melanogaster = Drosophila melanogaster lifespan assay; type: in vivo
# Method: Experiments were carried out with wild‐type Canton‐S Drosophila melanogaster, originating (Stock #64349) from the Bloomington Drosophila Stock Centre (Indiana University). Flies were reared on Nutri‐Fly Bloomington Formulation food medium (Genesee Scientific). Vials containing only fresh food were alternated with vials containing food supplemented with K5. The number of living flies was counted every 2–3 days. Detailed protocols are reported in the extended section.
# Drosophila melanogaster maintenance and lifespan assays. All experiments were carried out with wild-type Canton-S Drosophila melanogaster. Canton-S flies originated (Stock #64349) from the Bloomington Drosophila Stock Centre (Indiana University, Bloomington, IN, USA). Flies were reared on Nutri-Fly Bloomington Formulation food medium (Genesee Scientific, El Cajon, CA, USA) prepared using 176 g of Nutri-Fly per liter of distilled H2O. After cooling to 70°C, 4.8 mL of propionic acid (Merck KGaA, Darmstadt, Germany) per liter of food was added. Flies were maintained at constant temperature (25.0 ± 0.2°C) with 60% relative humidity on a 12 h:12 h 300 lux light-dark cycle generated by a 4000°K LED lamp (Fridge 1.5W, Ecoman Italia S.r.l., Frascati, Italy).
# For lifespan assays, newly enclosed Drosophila melanogaster (1 to 2 days old) were collected and placed separately in vials (each containing 10 male and 10 female flies). Two experiments were performed. In the first experiment, 300 flies were randomly divided into three groups (CTRL, K5 10 µg/mL, and K5 100 µg/mL). Vials containing only fresh food (Nutri-Fly Bloomington Formulation food medium) were alternated 3 times a week with vials containing food supplemented with K5. The K5 was dissolved in DMSO and then diluted 1:10 in corn oil. 5 µL of corn oil (containing 0, 10 µg, or 100 µg of K5) was added to each mL of freshly prepared Nutri-Fly Bloomington Formulation food medium. In the second experiment, 900 flies were divided by sex into CTRL group and K5 10 µg/mL treated group. […] All experiments counted the number of living flies every 2–3 days.
smiles,measurement,setting,value
"Cc1ccccc1-n1c(=O)n(Cc2ccccc2)c(=O)c2[nH]cnc21 [Compound K5, 1-benzyl-3-(2-methylphenyl)-7H-purine-2,6-dione]",Annexin V signal,MCF7 cells [1],significant and stable increase
same,Caspase 3 protein level,MCF7 cells [2],further increased
same,"Cytochrome C / mitochondria colocalization, Overlap R (OR)",IMR90 cells,0.454
same,"Cytochrome C / mitochondria colocalization, Overlap R (OR)",MCF7 cells [3]; TAM + Vehicle OR = 0.978,0.896
same,"Cytochrome C / mitochondria colocalization, Pearson's Rr (PRr)",MCF7 cells [3]; TAM + Vehicle PRr = 0.961,0.810
same,"effect on lifespan, preliminary treatment","Drosophila melanogaster; K5 10 μg/mL and 100 μg/mL, 100 flies per group, p = 0.034",significant overall difference in lifespan
same,increase of average lifespan compared to controls,"Drosophila melanogaster; K5 10 μg/mL in food from day 20, n = 884",6.63%
same,average lifespan of treated flies,"Drosophila melanogaster; K5 10 μg/mL in food from day 20, n = 884, controls 47.54 days ± 0.74 SE",50.69 days
